Results: patent US12428406B2 (PMV Pharmaceuticals, Inc., priority 2019, dated 2025)

Target: T1, p53 Y220C (Homo sapiens, UniProt P04637, Y220C)
T1 construct: The recombinant protein was a truncation mutant containing only amino acids 94-312 of p53; made in house; host or cells: E. coli
Test: In vitro DNA binding activity assay (HTRF / TR-FRET): stabilization of p53 Y220C and increase of its DNA binding activity
Format: biochemical
Settings: recombinant His-tagged p53 Y220C DNA binding domain (aa 94-312), biotin-labeled consensus DNA, incubated at 27° C. or 29° C. for 60 min
Description: The ability of a compound of the invention to stabilize p53 Y220C and increase the DNA binding activity of p53 Y220C was measured by a homogeneous time-resolved fluorescence (HTRF) assay. Recombinant His-tagged p53 Y220C used in the HTRF assay was expressed in the bacterium E. coli.
The binding of the recombinant His-tagged p53 Y220C protein and the biotin-labeled consensus DNA was measured using fluorescence resonance energy transfer (FRET). For the FRET assay, the binding between the p53 mutant and the DNA sequence was measured by detecting the fluorescence of the interaction between an anti-His antibody conjugated to allophycocyanin (APC) and streptavidin conjugated to europium to detect the biotin-labeled DNA.
The test compounds were prepared as 4.5 mM stock solutions in dimethyl sulfoxide (DMSO). The compounds of the disclosure were used to test the stabilization of p53 Y220C and increase in DNA binding activity of p53 Y220C. The stock solutions were then serially diluted 3-fold in DMSO, and 1.2 μL of the diluted solutions was added to each well of a 384-well polypropylene black plate.
The test and control samples were spun at 1200 rpm for 1 minute and incubated at room temperature for 15 minutes. […] The plates were spun at 1200 rpm for 1 minute and incubated at room temperature for 20 minutes. The assay signals were monitored by reading excitation at 340 nm, and emission fluorescence at 615 nm and 665 nm on a plate reader.
The percentage of activation of protein DNA binding in the presence of a compound of the invention compared to the absence of the compound was denoted by a SC150 value, which indicated the concentration of the compound required to increase the DNA binding activity by 50%. The SC150 values were calculated using either Prism™ or ActivityBase™.

T1 sequence (P04637 94-312, change not shown): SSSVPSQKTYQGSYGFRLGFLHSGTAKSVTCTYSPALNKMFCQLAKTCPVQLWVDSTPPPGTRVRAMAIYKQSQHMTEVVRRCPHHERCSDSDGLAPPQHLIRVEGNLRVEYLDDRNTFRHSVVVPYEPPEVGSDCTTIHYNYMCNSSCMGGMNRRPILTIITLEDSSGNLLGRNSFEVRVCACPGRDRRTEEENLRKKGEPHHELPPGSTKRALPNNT

Row | Structure (SMILES) | SC150 (concentration of the compound required to increase the DNA binding activity by 50%)
1 | CNC(=O)c1ccc(NCC#Cc2cc3c(N[C@H]4CCN(C)C[C@@H]4F)cccc3n2CC(F)(F)F)c(OC)c1 (racemic) [Compound 785A, rac-4-{[3-(4-{[(3R,4R)-3-fluoro-1-methylpiperidin-4-yl]amino}-1-(2,2,2-trifluoroethyl)-1H-indol-2-yl)prop-2-yn-1-yl]amino}-3-methoxy-N-methylbenzamide] | + (+ = 0 μM ≤ SC150 < 0.05 μM)
2 | COCCN(CCOC)[C@H]1CC[C@H](Nc2cccc3c2cc(C#CCNc2ccc(S(N)(=O)=O)cc2OC)n3CC(F)(F)F)CC1 [Compound 61A, 3-methoxy-4-{[3-(4-{[(1R,4R)-4-[bis(2-methoxyethyl)amino]cyclo-hexyl]amino}-1-(2,2,2-trifluoroethyl)-1H-indol-2-yl)prop-2-yn-1-yl]amino}benzene-1-sulfonamide] | + (+ = 0 μM ≤ SC150 < 0.05 μM)
3 | CCOCC(O)CN1CCC(Nc2cccc3c2cc(C#CCNc2ccc(S(C)(=O)=O)cc2OC)n3CC(F)(F)F)CC1 (centres unmarked) [Compound 660A, 1-ethoxy-3-{4-[(2-{3-[(4-methanesulfonyl-2-methoxyphenyl)amino]prop-1-yn-1-yl}-1-(2,2,2-trifluoroethyl)-1H-indol-4-yl)amino]piperidin-1-yl}propan-2-ol] | + (+ = 0 μM ≤ SC150 < 0.05 μM)
4 | CS(=O)(=O)c1ccc(NCC#Cc2cc3c(N[C@H]4CC[C@@H](N5CCC6(CC5)COC6)CC4)cccc3n2CC(F)(F)F)c(OCC#N)c1 [Compound 390A, 2-(5-methanesulfonyl-2-{[3-(4-{[(1S,4S)-4-{2-oxa-7-azaspiro[3.5]nonan-7-yl}cyclohexyl]amino}-1-(2,2,2-trifluoroethyl)-1H-indol-2-yl)prop-2-yn-1-yl]amino}phenoxy)acetonitrile] | + (+ = 0 μM ≤ SC150 < 0.05 μM)
5 | NS(=O)(=O)c1ccc(NCC#Cc2cc3c(N[C@H]4CC[C@H](N5CCOCC5)CC4)cccc3n2CC(F)(F)F)c(OCF)c1 [Compound 344A, 3-(fluoromethoxy)-4-{[3-(4-{[(1R,4R)-4-(morpholin-4-yl)cyclohexyl]amino}-1-(2,2,2-trifluoroethyl)-1H-indol-2-yl)prop-2-yn-1-yl]amino}benzene-1-sulfonamide] | + (+ = 0 μM ≤ SC150 < 0.05 μM)
6 | COc1cc(C(=O)O)ccc1NCC#Cc1cc2c(NC3CCN(C[C@@H](C)O)CC3F)cccc2n1CC(F)(F)F (mixture of isomers) [Compound 911A, 4-{[3-(4-{[(3S,4R)-3-fluoro-1-(2-hydroxypropyl)piperidin-4-yl]amino}-1-(2,2,2-trifluoroethyl)-1H-indol-2-yl)prop-2-yn-1-yl]amino}-3-methoxybenzoic acid] | + (+ = 0 μM ≤ SC150 < 0.05 μM)
7 | COc1cc(S(N)(=O)=O)ccc1NCC#Cc1cc2c(N[C@H]3CC[C@H](N4CC5(CCOCC5)C4)CC3)cccc2n1CC(F)(F)F [Compound 297A, 3-methoxy-4-{[3-(4-{[(1R,4R)-4-{7-oxa-2-azaspiro[3.5]nonan-2-yl}cyclohexyl]amino}-1-(2,2,2-trifluoroethyl)-1H-indol-2-yl)prop-2-yn-1-yl]amino}benzene-1-sulfonamide] | + (+ = 0 μM ≤ SC150 < 0.05 μM)
8 | COc1cc(C#N)ccc1NCC#Cc1cc2c(NC3CCC(N4CC5(COC5)C4)CC3)cccc2n1CC(F)(F)F (centres unmarked) [Compound 249A, 3-methoxy-4-[(3-{4-[(4-{2-oxa-6-azaspiro[3.3]heptan-6-yl}cyclohexyl)amino]-1-(2,2,2-trifluoroethyl)-1H-indol-2-yl}prop-2-yn-1-yl)amino]benzonitrile] | + (+ = 0 μM ≤ SC150 < 0.05 μM)
9 | COCC(=O)N1CC[C@@H](Nc2cccc3c2cc(C#CCNc2ccc(S(C)(=O)=O)cc2OC)n3CC(F)(F)F)[C@@H](F)C1 [Compound 866A, 1-[(3S,4R)-3-fluoro-4-[(2-{3-[(4-methanesulfonyl-2-methoxyphenyl)amino]prop-1-yn-1-yl}-1-(2,2,2-trifluoroethyl)-1H-indol-4-yl)amino]piperidin-1-yl]-2-methoxyethan-1-one] | + (+ = 0 μM ≤ SC150 < 0.05 μM)
10 | CS(=O)(=O)c1ccc(NCC#Cc2cc3c(N[C@H]4CC[C@@H](N5CC6(COC6)C5)CC4)cccc3n2CC(F)(F)F)c(O)c1 [Compound 215A, 5-methanesulfonyl-2-{[3-(4-{[(1S,4S)-4-{2-oxa-6-azaspiro [3.3]heptan-6-yl}cyclo-hexyl]amino}-1-(2,2,2-trifluoroethyl)-1H-indol-2-yl)prop-2-yn-1-yl]amino}phenol] | + (+ = 0 μM ≤ SC150 < 0.05 μM)
11 | COCC(O)CN1CCC(Nc2cccc3c2cc(C#CCNc2ccc(S(C)(=O)=O)cc2OCC#N)n3CC(F)(F)F)CC1 (centres unmarked) [Compound 642A, 2-(2-{[3-(4-{[1-(2-hydroxy-3-methoxypropyl)piperidin-4-yl]amino}-1-(2,2,2-trifluoroethyl)-1H-indol-2-yl)prop-2-yn-1-yl]amino}-5-methanesulfonylphenoxy) acetonitrile] | + (+ = 0 μM ≤ SC150 < 0.05 μM)
12 | COc1cc(C(=O)N2CCC(O)CC2)ccc1NCC#Cc1cc2c(N[C@@H]3CCN(C)C[C@@H]3F)cccc2n1CC(F)(F)F [Compound 919A] | + (+ = 0 μM ≤ SC150 < 0.05 μM)
13 | COCCN(C)[C@H]1CC[C@@H](Nc2cccc3c2cc(C#CCNc2ccc(S(C)(=O)=O)cc2OCC#N)n3CC(F)(F)F)CC1 [Compound 150A] | + (+ = 0 μM ≤ SC150 < 0.05 μM)
14 | CNC(=O)c1ccc(NCC#Cc2cc3c(N[C@H]4CC[C@H](C#N)CC4)cccc3n2CC(F)(F)F)c(OC)c1 [Compound 34A, 3-methoxy-N-methyl-4-{[3-(4-{[(1R,4R)-4-cyanocyclohexyl]amino}-1-(2,2,2-trifluoroethyl)-1H-indol-2-yl)prop-2-yn-1-yl]amino}benzamide] | + (+ = 0 μM ≤ SC150 < 0.05 μM)
15 | CCNC(=O)c1ccc(NCC#Cc2cc3c(NC4CCN(CC(O)COC)CC4)cccc3n2CC(F)(F)F)c(OC)c1 (centres unmarked) [Compound 655A, N-ethyl-4-{[3-(4-{[1-(2-hydroxy-3-methoxypropyl)piperidin-4-yl]amino}-1-(2,2,2-trifluoroethyl)-1H-indol-2-yl)prop-2-yn-1-yl]amino}-3-methoxybenzamide] | + (+ = 0 μM ≤ SC150 < 0.05 μM)
16 | COc1cc(S(N)(=O)=O)ccc1NCC#Cc1cc2c(NC3CC4(COC4)C3)cccc2n1CC(F)(F)F [Compound 18A] | + (+ = 0 μM ≤ SC150 < 0.05 μM)
17 | CNC(=O)c1cc(OC)c(NCC#Cc2cc3c(N[C@@H]4CCN(C)C[C@@H]4F)cccc3n2CC(F)(F)F)cn1 [Compound 1065A, 5-{[3-(4-{[(3S,4R)-3-fluoro-1-methylpiperidin-4-yl]amino}-1-(2,2,2-trifluoroethyl)-1H-indol-2-yl)prop-2-yn-1-yl]amino}-4-methoxy-N-methylpyridine-2-carboxamide] | + (+ = 0 μM ≤ SC150 < 0.05 μM)
18 | COc1cc(C(=O)O)ccc1NCC#Cc1cc2c(N[C@@H]3CCN(C)C[C@H]3F)cccc2n1CC(F)(F)F [Compound 788A, 4-{[3-(4-{[(3R,4R)-3-fluoro-1-methylpiperidin-4-yl]amino}-1-(2,2,2-trifluoroethyl)-1H-indol-2-yl)prop-2-yn-1-yl]amino}-3-methoxybenzoic acid] | + (+ = 0 μM ≤ SC150 < 0.05 μM)
19 | COc1cc(S(=O)(=O)NC2CCOCC2)ccc1NCC#Cc1cc2c(NC3CCN(C)CC3)cccc2n1CC(F)(F)F [Compound 470A, 3-methoxy-4-[(3-{4-[(1-methylpiperidin-4-yl)amino]-1-(2,2,2-trifluoroethyl)-1H-indol-2-yl}prop-2-yn-1-yl)amino]-N-(oxan-4-yl)benzene-1-sulfonamide] | + (+ = 0 μM ≤ SC150 < 0.05 μM)
20 | COCC(O)CN1CCC(Nc2cccc3c2cc(C#CCNc2cc(F)c(S(C)(=O)=O)cc2OC)n3CC(F)(F)F)CC1 (centres unmarked) [Compound 677A, 1-{4-[(2-{3-[(5-fluoro-4-methanesulfonyl-2-methoxyphenyl)amino]prop-1-yn-1-yl}-1-(2,2,2-trifluoroethyl)-1H-indol-4-yl)amino]piperidin-1-yl}-3-methoxypropan-2-ol] | + (+ = 0 μM ≤ SC150 < 0.05 μM)
